The source of these data is patent US9758486B1 (priority 2017, dated 2017).

The test system of experiment [1] is human kidney cancer cells (A-498). The experiment in a line: MTT tumor cell proliferation inhibition test, A-498. Conditions: read-out: Half Inhibitory Concentration IC50, A-498. The class given is cell-based. On the procedure:
(§1) The compounds of the present invention were subjected to tumor cell proliferation inhibition test, and conventional MTT method was used.
(§2) Cell lines: human kidney cancer cells (A-498), human lung cancer cells (A-549), human brain astrocytoma cells (U-251). The culture medium was DMEM+15% NBS+double antibody.
(§3) Sample solution preparation: after dissolving with DMSO (Merck), PBS (−) was added to obtain 100 μmol/L solution or homogeneous suspension. The solution was diluted with PBS (−) in DMSO to a final concentration of 0.1, 1, 10, 20, 40, 60, 80, 100 μmol/L.
(§4) Gossypol was used as control solution, prepared under the same condition.
(§5) Cell culture: adherent growth Tumor cells were cultured in 1640 medium containing 10% inactivated neonatal bovine serum and penicillin, streptomycin (1 million U/L), placed in carbon dioxide incubator at 37° C., 5% CO2, and saturated humidity. Cells were treated serially passaged 2-3 times. The first culture was washed with PBS 2 times, and digested with trypsin. Fresh culture medium was added evenly, cells were adjusted to a appropriate concentration and transferred into a new culture flask. Cell in an exponential phase were chosen for the tests.
(§6) MTT Assay for Cell Viability and IC50 Determination:
(§7) Experimental Principle: Living cells mitochondria in the dehydrogenase can reduce yellow MTT to water-insoluble blue-violet product MT (MTT formazan), deposited in the cells. The amount of production is proportional to the number of living cells. […] DMSO can dissolve blue violet crystals, and the color depth is proportional to the amount contained, so the absorbance measured by the microplate reader can reflect the cell viability.
(§8) Methods: The exponential phase cells were digested and counted and seeded in 96-well plates at a density of 2×10^4/mL at 100 μl per well. After 24 hours of incubation, the cells to be tested were treated with 0.1, 1, 10, 20, 40, 60, 80, 100 μmol/L of the compounds. Each experimental group had 5 wells in each concentration, and the culture medium containing 0.4% DMSO was used as control. After 48 hours, the supernatant was discarded, and 100 μl of MTT ((2-(4,5-dimethyl-2-thiazolyl)-3,5-diphenyl-2H-[…]) (1 mg/mL) was added to each well. After another 4 hours, the supernatant was discarded, and 100 μl of DMSO was added to each well. After mixing, the absorbance was measured at 570 nm using a microplate reader. An IC50 calculation software was used to determine the half inhibitory concentration (IC50).

In experiment [2] the test system is human lung cancer cells (A-549). Kind of experiment: MTT tumor cell proliferation inhibition test, A-549. The format is cell-based. Particulars: read-out: Half Inhibitory Concentration IC50, A-549. On the procedure:
as §1, §2, §3, §4, §5, §6, §7, §8

Experiment [3] has as its system human brain astrocytoma cells (U-251). Kind of experiment: MTT tumor cell proliferation inhibition test, U-251. The class given is cell-based. Particulars: read-out: Half Inhibitory Concentration IC50, U-251. The procedure: as §1, §2, §3, §4, §5, §6, §7, §8
The subject of experiment [4] is tumor cells (A-498, A-549, U-251). Kind of experiment: MTT tumor cell proliferation inhibition test, summary in words over the cell lines tested. The format is cell-based, human. Particulars: summary of Table 1. The procedure: as §1, §2, §8
These compounds can be used for the study of antitumor agents.

Where [5] appears, read: A498, A-498 cells, MTT, 48 hours treatment.
[6] abbreviates: A549, A-549 cells, MTT, 48 hours treatment.
The mark [7] stands for this setting: U-251 cells, MTT, 48 hours treatment.

Like-named read-outs stand apart in the source and are kept apart here.

`CC1=NN(c2ccc(C)cc2)C(=O)/C1=C\c1c(O)c(O)c(C(C)C)c2cc(C)c(-c3c(C)cc4c(C(C)C)c(O)c(O)c(C=O)c4c3O)c(O)c12` [B, (Z)-1,1′,6,6′,7,7′-hexahydroxy-5,5′-diisopropyl-3,3′-dimethyl-8′-((3-methyl-5-oxo-1-(p-tolyl)-1H-pyrazol-4(5H)-ylidene)methyl)-[2,2′-binaphthalene]-8-carbaldehyde]: the figures for the IC50 in experiment [1] (setting [5]) and in experiment [2] (setting [6]) were 37.6 ± 2.23 µM and 78.4 ± 2.65 µM, respectively.
In the case of `COc1ccc(N2N=C(C)/C(=C/c3c(O)c(O)c(C(C)C)c4cc(C)c(-c5c(C)cc6c(C(C)C)c(O)c(O)c(C=O)c6c5O)c(O)c34)C2=O)cc1` [C], the IC50 in experiment [3] (setting [7]) was above 100 µM; in experiment [1] (setting [5]) it was 25.3 ± 0.95 µM; in experiment [2] (setting [6]), above 100 µM.
As to `CC1=NN(c2ccccc2)C(=O)/C1=C\c1c(O)c(O)c(C(C)C)c2cc(C)c(-c3c(C)cc4c(C(C)C)c(O)c(O)c(C=O)c4c3O)c(O)c12` [Compound A, (Z)-1,1′,6,6′,7,7′-hexahydroxy-5,5′-diisopropyl-3,3′-dimethyl-8′-((3-methyl-5-oxo-1-phenyl-1H-pyrazol-4(5H)-ylidene)methyl)-[2,2′-binaphthalene]-8-carbaldehyde], the IC50 was 10.4 ± 0.67 µM in experiment [3] (U-251, 48 h); 11.4 ± 1.03 µM in experiment [1] (A498, 48 h); 10.5 ± 0.92 µM in experiment [2] (A549, 48 h). Further, the “antitumor activities (statement in words)” value (“antitumor activities” for short) in experiment [4] is recorded as “good antitumor activities in all three cell lines tested”.
On to `C=CC1=NN(c2ccc(C)cc2)C(=O)/C1=C\c1c(O)c(O)c(C(C)C)c2cc(C)c(-c3c(C)cc4c(C(C)C)c(O)c(O)c(C=O)c4c3O)c(O)c12` [Compound I, (Z)-1,1′,6,6′,7,7′-hexahydroxy-5,5′-diisopropyl-3,3′-dimethyl-8′-((5-oxo-1-(p-tolyl)-3-vinyl-1H-pyrazol-4(5H)-ylidene)methyl)-[2,2′-binaphthalene]-8-carbaldehyde], for which the figures for the IC50 in experiment [3] (setting [7]), in experiment [1] (setting [5]) and in experiment [2] (setting [6]) were 20.7 ± 0.84 µM, 11.7 ± 0.65 µM and 18.1 ± 0.72 µM, respectively. Moreover, the “antitumor activities” value in experiment [4] is on record as “good antitumor activities in different cell lines”.
For the compound `CC1=NN(c2ccc(Cl)cc2)C(=O)/C1=C\c1c(O)c(O)c(C(C)C)c2cc(C)c(-c3c(C)cc4c(C(C)C)c(O)c(O)c(C=O)c4c3O)c(O)c12` [D, (Z)-8′-((1-(4-chlorophenyl)-3-methyl-5-oxo-1H-pyrazol-4(5H)-ylidene)methyl)-1,1′,6,6′,7,7′-hexahydroxy-5,5′-diisopropyl-3,3′-dimethyl-[2,2′-binaphthalene]-8-carbaldehyde], the figures for the IC50 in experiment [3] (setting [7]), in experiment [1] (setting [5]) and in experiment [2] (setting [6]) were above 100 µM, 24.3 ± 0.91 µM and 36.9 ± 0.83 µM, respectively.
As to `COC1=NN(c2ccccc2)C(=O)/C1=C\c1c(O)c(O)c(C(C)C)c2cc(C)c(-c3c(C)cc4c(C(C)C)c(O)c(O)c(C=O)c4c3O)c(O)c12` [E, (Z)-1,1′,6,6′,7,7′-hexahydroxy-5,5′-diisopropyl-8′-((3-methoxy-5-oxo-1-phenyl-1H-pyrazol-4(5H)-ylidene)methyl)-3,3′-dimethyl-[2,2′-binaphthalene]-8-carbaldehyde], the IC50 was determined as 26.1 ± 1.8 µM in experiment [3] (setting [7]), 17.8 ± 0.95 µM in experiment [1] (setting [5]) and 26.7 ± 1.12 µM in experiment [2] (setting [6]). In addition, the “antitumor activities” value in experiment [4] is recorded as “good antitumor activities in different cell lines”.
`COC1=NN(c2ccc(OC)cc2)C(=O)/C1=C\c1c(O)c(O)c(C(C)C)c2cc(C)c(-c3c(C)cc4c(C(C)C)c(O)c(O)c(C=O)c4c3O)c(O)c12` [F]: the IC50 in experiment [3] (setting [7]) was 58.2 ± 2.1 µM; in experiment [1] (setting [5]) it was above 100 µM; in experiment [2] (setting [6]), 65.9 ± 2.84 µM.
With `COC1=NN(c2ccc(Cl)cc2)C(=O)/C1=C\c1c(O)c(O)c(C(C)C)c2cc(C)c(-c3c(C)cc4c(C(C)C)c(O)c(O)c(C=O)c4c3O)c(O)c12` [G, (Z)-8′-((1-(4-chlorophenyl)-3-methoxy-5-oxo-1H-pyrazol-4(5H)-ylidene)methyl)-1,1′,6,6′,7,7′-hexahydroxy-5,5′-diisopropyl-3,3′-dimethyl-[2,2′-binaphthalene]-8-carbaldehyde], the IC50 in experiment [3] (setting [7]) was above 100 µM; in experiment [1] (setting [5]) it was 26.5 ± 1.02 µM; in experiment [2] (setting [6]), 43.4 ± 1.21 µM. In experiment [4], the “antitumor activities” value is “good antitumor activities in different cell lines”.
Regarding `Cc1cc2c(C(C)C)c(O)c(O)c(C=O)c2c(O)c1-c1c(C)cc2c(C(C)C)c(O)c(O)c(C=O)c2c1O` [Gossypol], the IC50 in experiment [3] (setting [7]) stood at 20.2 ± 1.3 µM; in experiment [1] (setting [5]) it was 11.3 ± 0.28 µM; in experiment [2] (setting [6]), 14.9 ± 0.64 µM.
As to `C=CC1=NN(c2ccccc2)C(=O)/C1=C\c1c(O)c(O)c(C(C)C)c2cc(C)c(-c3c(C)cc4c(C(C)C)c(O)c(O)c(C=O)c4c3O)c(O)c12` [H, (Z)-1,1′,6,6′,7,7′-hexahydroxy-5,5′-diisopropyl-3,3′-dimethyl-8′-((5-oxo-1-phenyl-3-vinyl-1H-pyrazol-4(5H)-ylidene)methyl)-[2,2′-binaphthalene]-8-carbaldehyde], the IC50 in experiment [3] (setting [7]) is 78.7 ± 2.02 µM; in experiment [1] (setting [5]) it was above 100 µM; in experiment [2] (setting [6]), above 100 µM.
`C=CC1=NN(c2ccc(Cl)cc2)C(=O)/C1=C\c1c(O)c(O)c(C(C)C)c2cc(C)c(-c3c(C)cc4c(C(C)C)c(O)c(O)c(C=O)c4c3O)c(O)c12` [J, (Z)-8′-((1-(4-chlorophenyl)-5-oxo-3-vinyl-1H-pyrazol-4(5H)-ylidene)methyl)-1,1′,6,6′,7,7′-hexahydroxy-5,5′-diisopropyl-3,3′-dimethyl-[2,2′-binaphthalene]-8-carbaldehyde]: the IC50 was found to be 26.2 ± 1.15 µM in experiment [3] (setting [7]), 13.8 ± 0.85 µM in experiment [1] (setting [5]) and 12.7 ± 1.12 µM in experiment [2] (setting [6]). In addition, the “antitumor activities” value in experiment [4] is “good antitumor activities in different cell lines”.
`CC1=NN(c2c(C)cccc2Cl)C(=O)/C1=C\c1c(O)c(O)c(C(C)C)c2cc(C)c(-c3c(C)cc4c(C(C)C)c(O)c(O)c(C=O)c4c3O)c(O)c12` [K, (Z)-8′-((1-(2-chloro-6-methylphenyl)-3-methyl-5-oxo-1H-pyrazol-4(5H)-ylidene)methyl)-1,1′,6,6′,7,7′-hexahydroxy-5,5′-diisopropyl-3,3′-dimethyl-[2,2′-binaphthalene]-8-carbaldehyde]: the IC50 is 11.5 ± 1.32 µM in experiment [3] (U-251, 48 h); above 100 µM in experiment [1] (A498, 48 h); above 100 µM in experiment [2] (A549, 48 h).
Regarding `C=CC1=NN(c2c(C)cccc2Cl)C(=O)/C1=C\c1c(O)c(O)c(C(C)C)c2cc(C)c(-c3c(C)cc4c(C(C)C)c(O)c(O)c(C=O)c4c3O)c(O)c12` [L, (Z)-8′-((1-(2-chloro-6-methylphenyl)-5-oxo-3-vinyl-1H-pyrazol-4(5H)-ylidene)methyl)-1,1′,6,6′,7,7′-hexahydroxy-5,5′-diisopropyl-3,3′-dimethyl-[2,2′-binaphthalene]-8-carbaldehyde], the IC50 in experiment [3] (setting [7]), in experiment [1] (setting [5]) and in experiment [2] (setting [6]) was above 100 µM throughout.
